Results reported in patent US20080275029A1, “Compounds for Treating Protein-Kinase Mediated Disorders” (ASTEX THERAPEUTICS LIMITED, priority 2004, published 2008).
Counter-ions that a name gives are not always drawn.

biological target: T1, protein kinase B (PKB), fusion protein PKB-PIF (Homo sapiens, UniProt P31751); assay: Measurement of PKB kinase inhibitory activity (IC50); assay type: biochemical; settings: not given
T1 construct: made in house
Protocol: The inhibition of protein kinase B (PKB) activity by compounds can be determined essentially as described by Andjelkovic et al. (Mol. Cell. Biol. 19, 5061-5072 (1999)) but using a fusion protein described as PKB-PIF and described in full by Yang et al (Nature Structural Biology 9, 940-944 (2002)). […] A final concentration of 0.6 nM enzyme is used in a buffer that includes 20 mM MOPS pH 7.2, 30 μM ATP/γ^33P-ATP and 25 μM substrate. Compounds are added in DMSO solution to a final DMSO concentration of 2.5%. The reaction is allowed to proceed for 20 minutes before addition of excess orthophosphoric acid to quench activity. The reaction mixture is transferred to a phosphocellulose filter plate where the peptide binds and the unused ATP is washed away. After washing, scintillant is added and the incorporated activity measured by scintillation counting.
The % inhibition of the PKB activity is calculated and plotted in order to determine the concentration of test compound required to inhibit 50% of the PKB activity (IC50).

T1 sequence (P31751 with tags, fused parts or gaps limits assumed): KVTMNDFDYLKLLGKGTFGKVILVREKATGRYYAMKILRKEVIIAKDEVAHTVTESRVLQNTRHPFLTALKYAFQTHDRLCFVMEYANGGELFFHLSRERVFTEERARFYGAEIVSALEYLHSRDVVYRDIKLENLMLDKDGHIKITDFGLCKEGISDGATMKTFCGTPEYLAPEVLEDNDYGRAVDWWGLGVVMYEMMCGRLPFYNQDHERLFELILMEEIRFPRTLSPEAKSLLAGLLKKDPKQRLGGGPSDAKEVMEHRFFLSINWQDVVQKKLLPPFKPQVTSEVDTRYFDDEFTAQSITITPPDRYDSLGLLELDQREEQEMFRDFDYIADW

| IC50 [µM] | SMILES |
| --- | --- |
| < 10 | NCCCOc1ccc2c(=O)[nH]cnc2c1 [Example 9, 7-(3-Amino-propoxy)-3H-quinazolin-4-one] |
| < 10 | O=c1[nH]cnc2cc(NC3CCNC3)ccc12 (stereo not shown) [Example 16, 7-(Pyrrolidin-3-ylamino)-3H-quinazolin-4-one] |

| SMILES | IC50 [µM] |
| --- | --- |
| O=c1[nH]cnc2cc(N3CCNCC3)ccc12 [Example 18, 7-piperazin-1-yl-3H-quinazolin-4-one] | < 10 |

same assay, conditions: PKB-PIF activated with PDK1, 30 μM ATP, AKTide-2T substrate, 20 minutes; read-out: IC50 (concentration required to inhibit 50% of the PKB activity)

| SMILES | IC50 [µM] |
| --- | --- |
| NCCC(C(=O)Nc1ccc2c(=O)[nH]cnc2c1)c1ccc(Cl)c(Cl)c1 (stereo not shown) [Example 1, 4-Amino-2-(3,4-dichloro-phenyl)-N-(4-oxo-3,4-dihydro-quinazolin-7-yl)-butyramide] | < 10 |
| O=C(Nc1ccc2c(=O)[nH]cnc2c1)C1(c2ccccc2)CCNCC1 [Example 4, 4-Phenyl-piperidine-4-carboxylic acid (4-oxo-3,4-dihydro-quinazolin-7-yl)-amide] | < 10 |
| O=C(NCc1ccccc1)Nc1ccc2c(=O)[nH]cnc2c1 [Example 8, 1-Benzyl-3-(4-oxo-3,4-dihydro-quinazolin-7-yl)-urea] | < 10 |
| NCCCc1ccc2c(=O)[nH]cnc2c1 [Example 14, 7-(3-Amino-propyl)-3H-quinazolin-4-one] | < 10 |
| N[C@H]1CC[C@H](Nc2ccc3c(=O)[nH]cnc3c2)CC1 [Example 15, 7-(trans-4-Amino-cyclohexylamino)-3H-quinazolin-4-one] | < 10 |
| NC1CCN(c2ccc3c(=O)[nH]cnc3c2)CC1 [Example 17, 7-(4-Amino-piperidin-1-yl)-3H-quinazolin-4-one] | < 10 |
| O=c1[nH]cnc2cc(NC3CCCNC3)ccc12 (stereo not shown) [Example 20, 7-(Piperidin-3-ylamino)-3H-quinazolin-4-one] | < 10 |
| N[C@H]1CC[C@H](Nc2ccc3c(=O)[nH]c(=O)[nH]c3c2)CC1 [Example 21, 7-(4-Amino-cyclohexylamino)-1H-quinazoline-2,4-dione] | < 10 |
| CN1CCCN(c2ccc3c(=O)[nH]cnc3c2)CC1 [Example 22, 7-(4-Methyl-[1,4]diazepan-1-yl)-3H-quinazolin-4-one] | < 10 |
| CN1CCN(C2CCN(c3ccc4c(=O)[nH]cnc4c3)CC2)CC1 [Example 23, 7-[4-(4-Methyl-piperazin-1-yl)-piperidin-1-yl]-3H-quinazolin-4-one] | < 50 |
| CN1CCN(c2ccc3c(=O)[nH]cnc3c2)CC1 [Example 26, 7-(4-Methyl-piperazin-1-yl)-3H-quinazolin-4-one] | < 50 |
| NCC[C@H](C(=O)Nc1ccc2c(=O)[nH]cnc2c1)c1ccc(Cl)c(Cl)c1 [Example 28] | < 10 |
| NCC[C@@H](C(=O)Nc1ccc2c(=O)[nH]cnc2c1)c1ccc(Cl)c(Cl)c1 [Example 29, (R)-4-Amino-2-(3,4-dichloro-phenyl)-N-(4-oxo-3,4-dihydro-quinazolin-7-yl)butyramide] | < 10 |
| O=C(Nc1ccc2c(=O)[nH]cnc2c1)C1(c2ccc(Cl)cc2)CCNCC1 [Example 30, 4-(4-Chloro-phenyl)-piperidine-4-carboxylic acid (4-oxo-3,4-dihydro-quinazolin-7-yl)-amide] | < 10 |
| N[C@H]1CC[C@H](Oc2ccc3c(=O)[nH]cnc3c2)CC1 [Example 31, 7-(4-Amino-cyclohexyloxy)-3H-quinazolin-4-one] | < 10 |
| Cn1c(=O)[nH]c(=O)c2ccc(N3CCC(CN)(Cc4ccc(Cl)cc4)CC3)cc21 [Example 42, 7-[4-Aminomethyl-4-(4-chloro-benzyl)-piperidin-1-yl]-1-methyl-1H-quinazoline-2,4-dione] | < 10 |

Results, then the molecule that gave them:

| IC50 [µM] | SMILES |
| --- | --- |
| < 10 | CNCCC(C(=O)Nc1ccc2c(=O)[nH]cnc2c1)c1ccc(Cl)cc1 (stereo not shown) [Example 2, 2-(4-Chloro-phenyl)-4-methylamino-N-(4-oxo-3,4-dihydro-quinazolin-7-yl)-butyramide] |
| < 10 | NCCC(NC(=O)c1ccc2c(=O)[nH]cnc2c1)c1ccc(Cl)cc1 (stereo not shown) [Example 3, 4-Oxo-3,4-dihydro-quinazoline-7-carboxylic acid[3-amino-1-(4-chloro-phenyl-propyl]-amide hydrochloride] |
| < 10 | O=C(NCc1ccc(Cl)cc1)Nc1ccc2c(=O)[nH]cnc2c1 [Example 5, 1-(4-Chloro-benzyl)-3-(4-oxo-3,4-dihydro-quinazolin-7-yl)-urea] |
| < 10 | O=C(NCc1ccc(F)cc1)Nc1ccc2c(=O)[nH]cnc2c1 [Example 6, 1-(4-Fluoro-benzyl)-3-(4-oxo-3,4-dihydro-quinazolin-7-yl)-urea] |
| < 10 | O=c1[nH]cnc2cc(OCC3(c4ccccc4)CCNCC3)ccc12 [Example 7, 7-(4-Phenyl-piperidin-4-ylmethoxy)-3H-quinazolin-4-one] |
| < 10 | O=c1[nH]cnc2cc(N3CCCNCC3)ccc12 [Example 19, 7-[1,4]Diazepan-1-yl-3H-quinazolin-4-one] |
| < 50 | O=c1[nH]cnc2cc(N3CCNC(c4ccccc4)C3)ccc12 (stereo not shown) [Example 25] |
| < 10 | NCC1(c2ccc(Cl)cc2)CCN(c2ccc3c(=O)[nH]cnc3c2)CC1 [Example 27, 7-[4-Aminomethyl-4-(4-chloro-phenyl)-piperidin-1-yl]-3H-quinazolin-4-one] |
| < 10 | O=c1[nH]cnc2cc(NCC3(c4ccc(Cl)cc4)CCNCC3)ccc12 [Example 32, 7-{[4-(4-Chloro-phenyl)-piperidin-4-ylmethyl]-amino}-3H-quinazolin-4-one] |
| < 10 | O=c1[nH]cnc2cc(OCC3(c4ccc(Cl)cc4)CCNCC3)ccc12 [Example 33, 7-[4-(4-Chloro-phenyl)-piperidin-4-ylmethoxy]-3H-quinazolin-4-one] |
| < 10 | O=c1[nH]cnc2cc(N3CCC(CO)(c4ccc(Cl)cc4)CC3)ccc12 [Example 34, 7-[4-(4-Chloro-phenyl)-4-hydroxymethyl-piperidin-1-yl]-3H-quinazolin-4-one] |
| < 10 | Cc1nc2cc(N3CCC(CN)(c4ccc(Cl)cc4)CC3)ccc2c(=O)[nH]1 [Example 35, 7-[4-Aminomethyl-4-(4-chloro-phenyl)-piperidin-1-yl]-2-methyl-3H-quinazolin-4-one] |
| < 10 | NC(c1ccc(Cl)cc1)C1CCN(c2ccc3c(=O)[nH]cnc3c2)CC1 (stereo not shown) [Example 36, 7-{4-[Amino-(4-chloro-phenyl)-methyl]-piperidin-1-yl}-3H-quinazolin-4-one] |
| < 10 | Cn1c(=O)[nH]c(=O)c2ccc(OCC3(c4ccc(Cl)cc4)CCNCC3)cc21 [Example 37, 7-[4-(4-Chloro-phenyl)-piperidin-4-ylmethoxy]-1-methyl-1H-quinazoline-2,4-dione] |
| < 10 | NC1(Cc2ccc(Cl)cc2)CCN(c2ccc3c(=O)[nH]cnc3c2)CC1 [Example 38, 7-[4-Amino-4-(4-chloro-benzyl)-piperidin-1-yl]-3H-quinazolin-4-one] |
| < 10 | O=c1[nH]cnc2cc(/C=C/C3(c4ccc(Cl)cc4)CCNCC3)ccc12 [Example 39, 7-{2-[4-(4-Chloro-phenyl)-piperidin-4-yl]-vinyl}-3H-quinazolin-4-one dihydrochloride] |
| < 10 | NC1(c2ccc(Cl)cc2)CCN(c2ccc3c(=O)[nH]cnc3c2)CC1 [Example 40, 7-[4-Amino-4-(4-chloro-phenyl)-piperidin-1-yl]-3H-quinazolin-4-one] |
| < 10 | NCC1(Cc2ccc(Cl)cc2)CCN(c2ccc3c(=O)[nH]cnc3c2)CC1 [Example 41, 7-[4-Aminomethyl-4-(4-chloro-benzyl)-piperidin-1-yl]-3H-quinazolin-4-one] |
